# Results as given in PMC3003687, “α-Galactosylceramide Analogs with Weak Agonist Activity for Human iNKT Cells Define New Candidate Anti-Inflammatory Agents” (PLoS ONE, 2010).
# Molecular target: T1, hCD1d (Homo sapiens, UniProt P15813)
# T1 construct: we generated soluble and fluorescent tetrameric hCD1d molecules loaded with each of the glycolipid analogs; made in house
# Assay: Loading of hCD1d tetramers with variable glycolipid to CD1d ratios
# Assay type: binding
# Settings: 20 nM tetramers, 25 to 1000 fold molar excess of glycolipid to hCD1d, HDD3 clone
# Text: To characterize in more detail the iNKT cell TCR recognition of αGalCer analogs presented by human CD1d, we generated soluble and fluorescent tetrameric hCD1d molecules loaded with each of the glycolipid analogs. […] This was similar to the previously reported failure of mouse CD1d tetramer loaded with lysosulfatide to bind detectably to murine non-invariant and sulfatide specific NKT cells, despite a clear reactivity to this lipid upon presentation by APCs; [40]. […] To quantitate their binding avidities to iNKT cell TCRs, we used titration of analog-loaded hCD1d tetramers to determine equilibrium dissociation constants (KD), which are inversely proportional to avidity (Figure 3A and 3B).
# Figure 3 Characterization of human iNKT cell TCR interactions with analog-loaded tetramers. (A) iNKT cell clones were stained with titrated amounts of hCD1d tetramers loaded with the indicated glycolipids (abbreviations as in legend to Figure 1), and the measured MFI values are plotted for selected glycolipids. (B) The equilibrium dissociation constants (KD, inversely proportional to TCR avidity) were determined as the concentrations of tetramers required to yield 50% of maximal binding. Data shown were obtained using the CD4^+ iNKT cell clone HDD3, and similar results (not shown) were obtained with a second CD4^+ clone (HDD11) and a CD4^−8^− double negative iNKT cell clone (HDE3). (C) Analysis of iNKT cell clones labeled with 20 nM of hCD1d tetramers which were loaded with variable excesses of analog to constant hCD1d (25 to 1000 fold molar excess of glycolipid to hCD1d protein). The measured MFI values were normalized as the percent of the maximum staining intensity obtained with each analog loaded tetramer. Data presented were generated with HDD3 (CD4+) iNKT cell clone, and similar results (not shown) were obtained with HDE3 (DN) clone.
# T1 sequence (P15813 20-301 limits assumed): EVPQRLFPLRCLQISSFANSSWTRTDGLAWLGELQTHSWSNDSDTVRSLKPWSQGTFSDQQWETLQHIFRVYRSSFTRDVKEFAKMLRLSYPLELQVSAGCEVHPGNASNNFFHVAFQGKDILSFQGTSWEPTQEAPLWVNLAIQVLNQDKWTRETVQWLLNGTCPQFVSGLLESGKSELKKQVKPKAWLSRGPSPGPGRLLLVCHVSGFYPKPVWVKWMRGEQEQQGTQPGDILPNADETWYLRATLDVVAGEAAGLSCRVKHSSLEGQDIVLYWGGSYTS
# T1 sequence (P61769 21-119 partner): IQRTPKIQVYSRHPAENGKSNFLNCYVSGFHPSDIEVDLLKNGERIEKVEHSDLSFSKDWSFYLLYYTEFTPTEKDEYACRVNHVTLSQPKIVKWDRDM
compound,measurement,value
"CCCCCCCCCCCCCCCCCCCCCCCCCC(=O)N[C@@H](CO[C@H]1O[C@H](CO)[C@H](O)[C@H](O)[C@H]1O)[C@H](O)[C@H](O)CCCCCCCCCCCCCC [KRN7000, reference compound]",lipid excess at which tetramers were efficiently loaded,25–50 fold
